{"source": "patent US20100048397A1", "about": "“GABA/Pesticidal Combinations” (priority 2008, published 2010)", "origin": "cited, not measured here", "key": {"[1]": {"test_system": "greenhouse-grown cucumber plants", "details": "in vivo"}, "[2]": {"test_system": "greenhouse-grown tomato plants", "details": "in vivo"}, "[3]": {"test_system": "leek seed", "details": "seed treatment, compared with seed treated with fipronil"}}, "data": [{"smiles": "O=[N+]([O-])NC1=NCCN1Cc1ccc(Cl)nc1", "note": "[imidacloprid, (E)-1-(6-chloro-3-pyridylmethyl)-N-nitroimidazolidin-2-ylideneamine]", "values": [{"measurement": "phytotoxicity at lowest rate", "setting": "[1]", "result": "caused phytotoxicity symptoms"}, {"measurement": "phytotoxicity at lowest rate", "setting": "[2]", "result": "caused phytotoxicity symptoms"}, {"measurement": "phytotoxicity, germination rate", "setting": "[3]", "result": "delayed germination rates"}]}]}
